According to US20260184697A1, “EZH1/2 INHIBITOR, PREPARATION THEREOF, AND USE THEREOF IN ANTI-TUMOR THERAPY” (JIANGSU TASLY DIYI PHARMACEUTICAL CO., LTD., priority 2022, published 2026):
Like-named read-outs stand apart in the source and are kept apart here.

Tests used:
EZH2/SUZ/EED = target: T1, EZH2/SUZ/EED (Homo sapiens, UniProt O75530+Q15022+Q15910); experiment: Inhibitory effect on EZH2 by the MTase-Glo method (Test Example 1); assay type: biochemical; conditions: EZH2/SUZ/EED 6.25 nM, H3 peptide 10 μM, SAM 3 μM, 30° C. 3 h, read-out: Test Example 1 WT EZH2 IC50
T1 construct: purchased BPS 51003
Experimental: (§1) The compound was dissolved in DMSO, and the compound was serially diluted using ECHO665 and transferred to a 384-well reaction plate (Corning, 3824). A sample containing only DMSO was added as a positive control (maximum signal control) and a negative control (minimum signal control), while ensuring that the final DMSO content in each reaction well was 0.5%. The protein was configured in reaction buffer (50 mM Bicine, 0.01% Triton X-100, 1 mM DTT, 0.01% BSA, pH 7.6), such that the final reaction concentrations of EZH2/SUZ/EED (BPS, 51003) protein solution and EZH1/SUZ/EED (BPS, 51006) were 6.25 nM and 25 nM, respectively. The negative control (minimum signal control) used an equal amount of buffer instead of protein solution. The prepared protein solution was added to the 384-well reaction plate and pre-incubated at room temperature for 15 minutes. The mixture of the substrate H3 peptide fragment (custom-synthesized by GenScript, biotinylated Histone H3(21-44) peptide ([…]-GG-K(Biotin)-OH)) prepared in the reaction buffer and SAM (Promega, V7601) was added into the 384-well plate, such that the final reaction concentration of H3 peptide fragment was 10 μM, and the final concentration of SAM was 3 μM. The mixture was centrifuged at 1000 rpm for 1 min. The 384-well reaction plate was placed in a constant temperature shaker and incubate at 30° C. for 3 h at a speed of 300 rpm. Then the detection reagent was added according to the experimental process of the kit MTase-Glo (Promega, V7601) and incubated.
(§2) After incubation, read with BMG PHERAStar. The luminescence signals obtained by positive control (maximum signal control) and negative control (minimum signal control) were normalized to obtain the inhibition rate of different concentrations of compounds. Then, the IC50 of the compound on the enzyme activity inhibition was calculated by GraphPad Prism 6 with log(inhibitor) vs. response-Variable slope model fitting. The fitting equation is: Y=Bottom+(Top−Bottom)/(1+10^((Log IC50−X)*HillSlope)), wherein Y represents the known percentage remaining enzyme activity, and X represents the known activity after Log compound concentration.

EZH1/SUZ/EED = target: T2, EZH1/SUZ/EED (Homo sapiens, UniProt O75530+Q15022+Q92800); experiment: Inhibitory effect on EZH1 by the MTase-Glo method (Test Example 1); assay type: biochemical; conditions: EZH1/SUZ/EED 25 nM, H3 peptide 10 μM, SAM 3 μM, 30° C. 3 h, read-out: Test Example 1 WT EZH1 IC50
T2 construct: purchased BPS 51006
Experimental: as §1, §2

[1] = test system: H3K27Me3 methylation in Karpas-422 cells; experiment: H3K27Me3 cell method, inhibition of H3K27Me3 methylation (Test Example 2); assay type: cell-based, human
Experimental: Karpas-422 (Nanjing Kebai, CBP60629) cells were seeded in a 96-well plate (Corning, 3894) at 15,000 cells per well in culture medium (80% 1640 (Hyclone, SH30809.01)+20% FBS (Corning, 35-081-CV)), and then added with different concentrations of compounds for treatment. The cell growth group without adding compounds is used as a positive control (maximum signal control), and the medium is used as a negative control (minimum signal control), while ensuring that in each reaction well, the final concentration of DMSO was 0.2%. Compounds and cells were incubated for 3 days in a cell culture incubator (37° C., 5% CO2). The 96-well plate was taken out from the cell culture incubator and equilibrated to room temperature, and 25 ul of cell suspension was taken out into a 384-well plate. The CCK8 (Beiyuntian, C0040) detection reagent was added, incubated at 37° C. for 1 h, and […] was detected. The rest of the cells followed the procedure of the kit EPIgeneous H3K27Me3 cellular kit (Cisbio, 62KC3PAE) to carry out experiment, read HTRF signal with BMG PHERAStar. […] By GraphPad Prism 6 with log(inhibitor)vs.response-Variable slope model simulation, the IC50 of the compound on cell activity inhibition was calculated. The fitting equation is: Y=Bottom+(Top−Bottom)/(1+10^((Log IC50−X)*HillSlope)), wherein Y represents the inhibition rate, and X represents the known concentration of the compound after Log.

[2] = Karpas-422 cells, 3 days incubation, HTRF signal, read-out: Test Example 2 H3K27Me3 inhibition (Karpas-422) IC50
[3] = Homo sapiens, KARPAS-422, 72 h, Karpas-422 cells, 3 days incubation, HTRF signal, read-out: Test Example 2 H3K27Me3 inhibition (Karpas-422) IC50
[4] = Homo sapiens, KARPAS-422, 72 h, read-out: Test Example 2 H3K27Me3 inhibition (Karpas-422) IC50(nM)

T1 sequence (Q15910 2-746 limits assumed): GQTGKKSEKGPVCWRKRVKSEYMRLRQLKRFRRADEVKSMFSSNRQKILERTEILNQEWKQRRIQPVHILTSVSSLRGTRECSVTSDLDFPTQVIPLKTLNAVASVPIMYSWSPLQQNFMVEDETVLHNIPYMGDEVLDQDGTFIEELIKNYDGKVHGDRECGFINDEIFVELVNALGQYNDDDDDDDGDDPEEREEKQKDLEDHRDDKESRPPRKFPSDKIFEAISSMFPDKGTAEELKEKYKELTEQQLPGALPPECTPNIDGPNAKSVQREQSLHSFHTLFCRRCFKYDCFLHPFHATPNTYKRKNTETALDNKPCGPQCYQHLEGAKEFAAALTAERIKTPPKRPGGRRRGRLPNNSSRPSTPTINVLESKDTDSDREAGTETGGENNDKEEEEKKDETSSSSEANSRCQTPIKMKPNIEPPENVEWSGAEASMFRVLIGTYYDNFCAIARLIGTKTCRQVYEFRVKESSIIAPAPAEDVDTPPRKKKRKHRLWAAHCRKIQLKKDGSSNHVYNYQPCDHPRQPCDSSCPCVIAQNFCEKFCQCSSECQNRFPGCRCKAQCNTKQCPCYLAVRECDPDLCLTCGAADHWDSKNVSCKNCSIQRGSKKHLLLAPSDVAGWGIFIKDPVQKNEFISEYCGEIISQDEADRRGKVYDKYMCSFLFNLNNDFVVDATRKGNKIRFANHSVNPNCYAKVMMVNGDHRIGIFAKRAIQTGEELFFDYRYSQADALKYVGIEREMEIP
T1 sequence (Q15022 2-739 partner limits assumed): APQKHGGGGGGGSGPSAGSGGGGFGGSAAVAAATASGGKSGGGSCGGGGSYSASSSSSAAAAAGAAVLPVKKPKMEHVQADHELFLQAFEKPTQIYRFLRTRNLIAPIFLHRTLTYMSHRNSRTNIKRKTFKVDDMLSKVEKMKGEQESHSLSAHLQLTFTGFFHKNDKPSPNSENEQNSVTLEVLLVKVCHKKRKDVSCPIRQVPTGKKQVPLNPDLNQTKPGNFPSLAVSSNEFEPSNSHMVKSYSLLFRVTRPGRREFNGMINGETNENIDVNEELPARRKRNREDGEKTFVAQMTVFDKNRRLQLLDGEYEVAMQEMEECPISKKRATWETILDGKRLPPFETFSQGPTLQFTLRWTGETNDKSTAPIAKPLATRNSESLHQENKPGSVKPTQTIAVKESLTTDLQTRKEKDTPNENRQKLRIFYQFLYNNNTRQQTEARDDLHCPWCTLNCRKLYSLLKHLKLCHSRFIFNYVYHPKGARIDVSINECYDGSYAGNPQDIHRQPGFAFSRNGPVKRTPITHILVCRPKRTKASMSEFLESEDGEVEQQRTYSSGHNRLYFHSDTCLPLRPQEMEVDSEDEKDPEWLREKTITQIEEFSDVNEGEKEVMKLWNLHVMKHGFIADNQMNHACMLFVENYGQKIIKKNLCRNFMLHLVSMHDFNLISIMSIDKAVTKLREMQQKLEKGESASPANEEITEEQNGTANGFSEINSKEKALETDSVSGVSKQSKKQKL
T1 sequence (O75530 2-441 partner limits assumed): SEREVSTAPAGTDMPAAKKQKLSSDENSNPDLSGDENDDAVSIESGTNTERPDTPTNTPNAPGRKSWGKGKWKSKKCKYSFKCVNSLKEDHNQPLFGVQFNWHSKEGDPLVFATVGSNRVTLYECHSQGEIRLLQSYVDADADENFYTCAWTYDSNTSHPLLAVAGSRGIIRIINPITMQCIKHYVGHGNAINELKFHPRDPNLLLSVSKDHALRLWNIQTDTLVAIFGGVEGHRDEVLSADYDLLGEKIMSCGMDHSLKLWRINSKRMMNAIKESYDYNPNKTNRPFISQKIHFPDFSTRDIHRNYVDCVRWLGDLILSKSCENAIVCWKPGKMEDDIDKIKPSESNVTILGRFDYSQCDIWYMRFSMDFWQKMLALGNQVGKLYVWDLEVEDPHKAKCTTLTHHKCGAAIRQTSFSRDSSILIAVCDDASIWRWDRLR
T2 sequence (Q92800 2-747 limits assumed): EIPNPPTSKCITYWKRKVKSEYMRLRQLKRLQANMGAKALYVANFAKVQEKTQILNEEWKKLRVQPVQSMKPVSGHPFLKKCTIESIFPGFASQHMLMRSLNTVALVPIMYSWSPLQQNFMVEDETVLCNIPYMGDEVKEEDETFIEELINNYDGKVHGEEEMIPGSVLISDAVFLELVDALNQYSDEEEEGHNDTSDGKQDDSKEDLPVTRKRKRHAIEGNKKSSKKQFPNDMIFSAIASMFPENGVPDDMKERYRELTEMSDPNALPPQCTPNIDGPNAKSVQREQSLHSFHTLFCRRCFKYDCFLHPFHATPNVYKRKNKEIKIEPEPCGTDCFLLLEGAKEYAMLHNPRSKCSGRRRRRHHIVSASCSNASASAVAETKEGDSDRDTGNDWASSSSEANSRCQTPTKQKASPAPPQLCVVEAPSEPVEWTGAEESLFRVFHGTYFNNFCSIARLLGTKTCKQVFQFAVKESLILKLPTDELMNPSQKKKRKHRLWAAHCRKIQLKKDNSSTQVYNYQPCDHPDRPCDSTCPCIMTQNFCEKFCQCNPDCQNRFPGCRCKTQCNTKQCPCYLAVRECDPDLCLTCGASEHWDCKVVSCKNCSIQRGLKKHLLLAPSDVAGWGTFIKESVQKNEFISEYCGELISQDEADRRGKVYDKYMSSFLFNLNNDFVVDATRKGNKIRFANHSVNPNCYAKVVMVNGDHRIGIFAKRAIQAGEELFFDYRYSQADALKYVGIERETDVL
T2 sequence (Q15022 2-739 partner limits assumed): as the sequence (Q15022 2-739 partner limits assumed) above
T2 sequence (O75530 2-441 partner limits assumed): as the sequence (O75530 2-441 partner limits assumed) above

IC50 (EZH2/SUZ/EED) [nM] | IC50 (EZH1/SUZ/EED) [nM] | IC50 [1, 2] [nM] | IC50 [1, 3] [nM] | SMILES | IC50 [1, 4] [nM]
16.4 | 94.9 | > 1000 | – | Cc1cc(C)c(CNC(=O)c2cc(Cl)c3c(c2C)OC(C2CCC(N4CC5COCC5C4)CC2)CO3)c(=O)[nH]1 (single isomer, unassigned) [Compound 60] | –
22.1 | 1440 | 504 | – | COC1CN(C2CCC(C3COc4c(Cl)cc(C(=O)NCc5c(C)cc(C)[nH]c5=O)c(C)c4O3)CC2)C1 (single isomer, unassigned) [Compound 62] | –
16.6 | 254 | – | 896 | Cc1cc(C)c(CNC(=O)c2cc(Cl)c3c(c2C)OC(C2CCC(NC4CC(F)C4)CC2)CO3)c(=O)[nH]1 (single isomer, unassigned) [Compound 64] | –
22.1 | 177 | – | 201 | Cc1cc(C)c(CNC(=O)c2cc(Cl)c3c(c2C)OC(C2CCC(N4CC(F)C4)CC2)CO3)c(=O)[nH]1 (single isomer, unassigned) [Compound 70] | –
7.6 | 270 | 7.6 | – | Cc1cc(C)c(CNC(=O)c2cc(Cl)c3c(c2C)OC(C2CCC(N4CC(OC5CC5)C4)CC2)CO3)c(=O)[nH]1 (single isomer, unassigned) [Compound 76] | –
27.3 | 142 | 260 | – | Cc1cc(C)c(CNC(=O)c2cc(Cl)c3c(c2C)OC(C2CCC(N4CC(OC5CC5)C4)CC2)CO3)c(=O)[nH]1 (single isomer, unassigned) [Compound 77] | –
4.6 | 16.5 | – | 12 | COCCN1CCC([C@H]2COc3c(Cl)cc(C(=O)NCc4c(SC)cc(C)[nH]c4=O)c(C)c3O2)CC1 [Compound 17] | –
2.1 | 2.3 | – | 1.8 | [2H]C1(OC)CN([C@H]2CC[C@@H]([C@H]3COc4c(Cl)cc(C(=O)NCc5c(SC)cc(C)[nH]c5=O)c(C)c4O3)CC2)C1 [Compound 22] | –
4.5 | 9.2 | – | 9.8 | CSc1cc(C)[nH]c(=O)c1CNC(=O)c1cc(Cl)c2c(c1C)O[C@@H](C1CCN(CCF)CC1)CO2 [Compound 24] | –
1.6 | 8.3 | – | 17.3 | CSc1cc(C)[nH]c(=O)c1CNC(=O)c1cc(Cl)c2c(c1C)O[C@@H](C1CCN(CC3CCC3)CC1)CO2 [Compound 25] | –
2 | 5.4 | – | 3.4 | COCCN(C)[C@H]1CC[C@@H]([C@H]2COc3c(Cl)cc(C(=O)NCc4c(SC)cc(C)[nH]c4=O)c(C)c3O2)CC1 [Compound 26] | –
2.3 | 14.4 | – | 11.4 | COCCN(C)[C@H]1CC[C@H]([C@H]2COc3c(Cl)cc(C(=O)NCc4c(SC)cc(C)[nH]c4=O)c(C)c3O2)CC1 [Compound 27] | –
3.7 | 9.4 | – | 8.2 | CSc1cc(C)[nH]c(=O)c1CNC(=O)c1cc(Cl)c2c(c1C)O[C@@H]([C@H]1CC[C@@H](N3CC4(COC4)C3)CC1)CO2 [Compound 28] | –
3.3 | 5.8 | – | 34.2 | CSc1cc(C)[nH]c(=O)c1CNC(=O)c1cc(Cl)c2c(c1C)O[C@@H]([C@H]1CC[C@H](N3CC4(COC4)C3)CC1)CO2 [Compound 29] | –
3.4 | 7.4 | – | 60.5 | CSc1cc(C)[nH]c(=O)c1CNC(=O)c1cc(Cl)c2c(c1C)O[C@@H]([C@H]1CC[C@H](N3CC(CF)C3)CC1)CO2 [Compound 35] | –
2.4 | 9.7 | – | 11 | CSc1cc(C)[nH]c(=O)c1CNC(=O)c1cc(Cl)c2c(c1C)O[C@@H]([C@H]1CC[C@@H](NC3(CF)COC3)CC1)CO2 [Compound 36] | –
3.1 | 5.9 | – | 7 | CSc1cc(C)[nH]c(=O)c1CNC(=O)c1cc(Cl)c2c(c1C)O[C@@H]([C@H]1CC[C@H](NC3(CF)COC3)CC1)CO2 [Compound 37] | –
2.3 | 4.7 | – | 11.5 | CCS(=O)(=O)N1CCC([C@H]2COc3c(Cl)cc(C(=O)NCc4c(SC)cc(C)[nH]c4=O)c(C)c3O2)CC1 [Compound 38] | –
3.6 | 4.1 | – | 4.1 | COC1C2CN([C@H]3CC[C@@H]([C@H]4COc5c(Cl)cc(C(=O)NCc6c(SC)cc(C)[nH]c6=O)c(C)c5O4)CC3)CC21 (stereo partly drawn) [Compound 43] | –
51.3 | 196 | – | > 1000 | Cc1cc(C)c(CNC(=O)c2cc(Cl)c3c(c2C)O[C@@H]([C@H]2CC[C@@H](N4CC5COCC5C4)CC2)CO3)c(=O)[nH]1 (stereo partly drawn) [Compound 73] | –
48.1 | 199 | – | 245 | Cc1cc(C)c(CNC(=O)c2cc(Cl)c3c(c2C)O[C@@H]([C@H]2CC[C@H](N4CC5COCC5C4)CC2)CO3)c(=O)[nH]1 (stereo partly drawn) [Compound 75] | –
3.8 | 27.3 | – | 11.7 | COCCOC1CN([C@H]2CC[C@@H]([C@H]3COc4c(Cl)cc(C(=O)NCc5c(C)cc(C)[nH]c5=O)c(C)c4O3)CC2)C1 [Compound 91] | –
2.5 | 33.1 | – | 22 | COC1CN([C@H]2CC[C@@H]([C@H]3COc4c(Cl)cc(C(=O)NCc5c(C)cc(C)[nH]c5=O)c(C)c4O3)CC2)C1 [Compound 92] | –
3.2 | 17.8 | – | 56.9 | COCCN(C)[C@H]1CC[C@@H]([C@H]2COc3c(Cl)cc(C(=O)NCc4c(OC)cc(C)[nH]c4=O)c(C)c3O2)CC1 [Compound 107] | –
2.7 | 15.4 | – | 21.3 | COc1cc(C)[nH]c(=O)c1CNC(=O)c1cc(Cl)c2c(c1C)O[C@@H]([C@H]1CC[C@H](N3CC(OCCF)C3)CC1)CO2 [Compound 110] | –
33.9 | 307 | – | 402 | Cc1cc(C)c(CNC(=O)c2cc(Cl)c3c(c2C)OC(C2CCC(N(C)CCF)CC2)CO3)c(=O)[nH]1 (stereo not drawn) [Compound 125] | –
20.3 | 218 | – | 818 | Cc1cc(C)c(CNC(=O)c2cc(Cl)c3c(c2C)OC(C2CCC(N(C)C4CC(F)C4)CC2)CO3)c(=O)[nH]1 (stereo not drawn) [Compound 126] | –
3.1 | 46.8 | – | 43.3 | Cc1cc(C)c(CNC(=O)c2c(C)c3c(c(Cl)c2F)OC[C@H]([C@H]2CC[C@@H](N(C)C)CC2)O3)c(=O)[nH]1 [Compound 131] | –

SMILES | IC50 (EZH2/SUZ/EED) [nM] | IC50 (EZH1/SUZ/EED) [nM] | IC50 [1, 2] [nM] | IC50 [1, 3] [nM] | IC50 [1, 4] [nM]
CSc1cc(C)[nH]c(=O)c1CNC(=O)c1cc(Cl)c2c(c1C)O[C@@H]([C@H]1CC[C@H](N3CCC3)CC1)CO2 [Compound 33] | 3.6 | 9.4 | – | – | 7.7
Cc1cc(C)c(CNC(=O)c2cc(Cl)c3c(c2C)OC(C2CCC(N(C)C)CC2)C(C)O3)c(=O)[nH]1 (stereo not drawn) [Compound 124] | 16.1 | 326 | – | – | 133
Cc1cc(C)c(CNC(=O)c2cc(Cl)c3c(c2Cl)OC[C@@H]([C@H]2CC[C@@H](N(C)C)CC2)O3)c(=O)[nH]1 [Compound 147] | 6.8 | 92 | – | – | 83
